Data taken from patent publication US8956646B2, “Zwitterionic lipids” (The Regents of the University of California, priority 2010, dated 2015).
“Also recorded” adds a separate entry of the source.

Legend:
[1] = PE headgroup, literature values; cited from earlier work
[2] = Phase transition temperatures of sulfobetaine lipids (DSC); format: physicochemical; details: for inner/outer salt form (high/low transition) as function of NaCl concentration: DSC, 10 mM HEPES pH 7.4, NaCl up to 1M; for Transition Temperatures (° C.), SB Inner Salt: hypothesized inner salt form, observed high phase transition; for Transition Temperatures (° C.), SB Outer Salt: hypothesized outer salt form, observed low phase transition
Description: All buffers contain 10 mM HEPES, pH 7.4. Preparations were made at 26 mM SB lipid by thin film rehydration at 80° C., followed by brief 20 second bursts of sonication at 80° C. (˜2-4 times) to make dispersions of large bilayer fragments.
Based on our observations that SBL liposome formation and stability is largely dependent on salt composition and concentration we sought to determine if these effects changed the transition temperatures of the liposomes. The data in FIG. 3 clearly depicts a bi-modal phase transition behavior for the SBLs. Without salt, the majority of the SBLs are likely in one of the inner salt forms supported by the observed elevated transition temperatures.
Inner and outer salt conformations of the SBLs are hypothesized to coordinate to the observed high and low phase transitions, respectively.

[3] = SBL liposome formation, diameter and PDI in various salts; format: physicochemical; design: key to Liposome diameter (nm): DNF=Did Not Form, no liposomes formed
Description: The five SBLs were first examined for their ability to make vesicles under standard buffer conditions (10 mM HEPES, 140 mM NaCl, pH 7.4). We observed that none of the five SBLs were able to form stable liposomes after thin film rehydration in this buffer followed by sonication at 80° C. […] To test if the SB headgroup inner salt interactions could be disrupted by an increase in salt concentration, the same liposome formation process was performed at increasing NaCl concentrations. Salts with different anions were also tested to determine if those predicted to have greater binding than Cl^− would allow for liposome formation at concentrations where NaCl was not able to. Liposome-formation results are shown in Table 4 for all five SBLs with a variety of salts and at various NaCl concentrations.
Liposome preparations were made at 26 mM lipid in 10 mM HEPES buffer, pH 7.4 with the specified salt concentration. All preparations were rehydrated and sonicated at 80° C. for 7 minutes, allowed to cool for 5 minutes and then measured.
Liposome diameters were measured both five minutes after sonication and at 24 hours. DPSB and DSSB in NaI both formed gels and could not be measured and DPSB and DSSB with KBr precipitated into particles too large and polydisperse for measurement.

[4] = Zeta potential of BLL containing vesicles as a function of pH; format: physicochemical; details: changing ratio of DOBAQ:DOPC
Description: Liposomes containing quaternary BLL remain neutral at pH>pI, while liposomes containing tertiary BLL move from neutral to anionic as pH increases above the pI due to deprotonation of the amine.
All other lipids show pH responsive behavior, with 4° BLL generally transitioning from cationic to neutral, and 3° from cationic to neutral to anionic.
Further analysis is required to fully understand this behavior.

[5] = ZNLP hydrodynamic diameter, zeta potential and encapsulation efficiency; format: physicochemical; details: ZNLP encapsulating siRNA
Description: 5-10 min after particle formation liposomes are extruded through either 50 nm or 80 nm polycarbonate membranes 7 times. Methanol can be removed by either evaporation or dialysis.
FIG. 29 is a table showing ZNLP encapsulating siRNA: hydrodynamic diameter and zeta potential: siRNA was encapsulated into ZNLP from various zwitterionic lipids.
FIG. 30 is a table showing the effect of helper lipids on size and encapsulation efficiency: Changing helper lipid and lipid composition affects size and encapsulation efficiency of ZNLP. DOBA-Q formed small lipid vesicles≦80 nm. […] All lipid formulations display negative/neutral zeta potential.

[6] = Zeta/surface potential of SBL liposomes in salt solutions; format: physicochemical; details: order of anions; data not shown
Text: The vesicles formed in these three salts were all reasonably small, with those formed in KBr having, on average, a slighter larger diameter. This may be due the weaker binding of Br^− to the cationic region of the SBLs relative to I^− and ClO4^−, which would result in a higher percentage of SBLs in the inner-salt conformation.

[7] = 0 mM NaCl, 26 mM lipid, 10 mM HEPES pH 7.4
[8] = 150 mM KBr, five minutes after sonication
[9] = 150 mM NaCl, 26 mM lipid, 10 mM HEPES pH 7.4
[10] = 150 mM NaClO4, five minutes after sonication
[11] = 150 mM NaI, five minutes after sonication
[12] = 500 mM NaCl, 26 mM lipid, 10 mM HEPES pH 7.4
[13] = 1000 mM NaCl, 26 mM lipid, 10 mM HEPES pH 7.4

CCCCCCCCCCCCCCCC(=O)OCC(COP(=O)(O)OCCN)OC(=O)CCCCCCCCCCCCCCC (stereo not shown) [C16 PE]
Transition Temperatures (° C.), PE [1]: 63.5 °C

CCCCCCCCCCCCCCCCCC(=O)OCC(C[N+](C)(C)CCCS(=O)(=O)[O-])OC(=O)CCCCCCCCCCCCCCCCC (stereo not shown) [DSSB]
phase transitions observed ([2]; 150 mM NaF, NaCl, KBr, NaI, NaClO4): both transitions for all salts except NaClO4
inner/outer salt form (high/low transition) as function of NaCl concentration [2]: never exists completely as the inner salt conformation, but does reside as the outer salt form at 500 mM; also recorded: small low transition peak in a buffer without NaCl
Transition Temperatures (° C.), SB Inner Salt [2]: 68 °C
Transition Temperatures (° C.), SB Outer Salt [2]: 57 °C
Liposome diameter (nm) [3, 7]: DNF
Liposome diameter (nm) ([3]; 150 mM KBr (24 h)): Precipitated
Liposome diameter (nm) [3, 8]: 102.3 nm
PDI [3, 8]: 0.123
Liposome diameter (nm) [3, 9]: DNF
Liposome diameter (nm) ([3]; 150 mM NaClO4 (24 h)): 71.96 nm
PDI ([3]; 150 mM NaClO4 (24 h)): 0.282
Liposome diameter (nm) [3, 10]: 42.45 nm
PDI [3, 10]: 0.258
Liposome diameter (nm) ([3]; 150 mM NaF): DNF
Liposome diameter (nm) ([3]; 150 mM NaI (24 h)): Formed Gel
Liposome diameter (nm) [3, 11]: 43.31 nm
PDI [3, 11]: 0.231
Liposome diameter (nm) [3, 12]: 122.7 nm
PDI [3, 12]: 0.285
Liposome diameter (nm) [3, 13]: 137.9 nm
PDI [3, 13]: 0.404

CCCCCCCCCCCCCCCCCC(=O)OC[C@H](COP(=O)(O)OCCN)OC(=O)CCCCCCCCCCCCCCCCC [C18 PE]
Transition Temperatures (° C.), PE [1]: 74.4 °C

CCCCCCCCCCCC(=O)OCC(C[N+](C)(C)CCCS(=O)(=O)[O-])OC(=O)CCCCCCCCCCC (stereo not shown) [DLSB]
Liposome diameter (nm) [3, 7]: DNF
ability to make vesicles under standard buffer conditions ([3]; 10 mM HEPES, 140 mM NaCl, pH 7.4, thin film rehydration, sonication at 80° C.): formed large, polydisperse structures
Liposome diameter (nm) ([3]; 150 mM KBr (24 h)): 74.35 nm
PDI ([3]; 150 mM KBr (24 h)): 0.254
Liposome diameter (nm) [3, 8]: 54.56 nm
PDI [3, 8]: 0.276
Liposome diameter (nm) [3, 9]: 1728 nm
PDI [3, 9]: 0.708
Liposome diameter (nm) ([3]; 150 mM NaClO4 (24 h)): 37.32 nm
PDI ([3]; 150 mM NaClO4 (24 h)): 0.251
Liposome diameter (nm) [3, 10]: 30.46 nm
PDI [3, 10]: 0.205
Liposome diameter (nm) ([3]; 150 mM NaF): DNF
Liposome diameter (nm) ([3]; 150 mM NaI (24 h)): 39.24 nm
PDI ([3]; 150 mM NaI (24 h)): 0.215
Liposome diameter (nm) [3, 11]: 28.93 nm
PDI [3, 11]: 0.163
Liposome diameter (nm) [3, 12]: 41.7 nm
PDI [3, 12]: 0.296
Liposome diameter (nm) [3, 13]: 56.5 nm
PDI [3, 13]: 0.361

CCCCCCCC/C=C\CCCCCCCC(=O)OCC(C[N+](C)(C)Cc1ccc(C(=O)[O-])cc1)OC(=O)CCCCCCC/C=C\CCCCCCCC (stereo not shown) [DOBAQ]
Zeta potential as function of pH, effect of BLL:DOPC ratio [4]: general relationship between pH and zeta potential is maintained at all ratios tested
ZNLP size (hydrodynamic diameter) [5]: ≤ 80 nm

CCCCCCCCCCCCCC(=O)OCC(C[N+](C)(C)CCCS(=O)(=O)[O-])OC(=O)CCCCCCCCCCCCC (stereo not shown) [DMSB]
phase transitions observed ([2]; 150 mM NaClO4): only the high transition
phase transitions observed ([2]; 150 mM NaF): only the low transition
inner/outer salt form (high/low transition) as function of NaCl concentration [2]: existing as the outer salt with a high transition temperature for all NaCl concentrations up to 1M
Transition Temperatures (° C.), SB Inner Salt [2]: 48 °C
Transition Temperatures (° C.), SB Outer Salt [2]: 25-30 °C
zeta-potential (surface potential) in various salt solutions [6]: most negative for ClO4^−>I^−>Br^−>Cl^−
Liposome diameter (nm) [3, 7]: DNF
Liposome diameter (nm) ([3]; 150 mM KBr (24 h)): 31.67 nm
PDI ([3]; 150 mM KBr (24 h)): 0.181
Liposome diameter (nm) [3, 8]: 28.53 nm
PDI [3, 8]: 0.160
Liposome diameter (nm) [3, 9]: DNF
Liposome diameter (nm) ([3]; 150 mM NaClO4 (24 h)): 43.68 nm
PDI ([3]; 150 mM NaClO4 (24 h)): 0.24
Liposome diameter (nm) [3, 10]: 41.76 nm
PDI [3, 10]: 0.239
Liposome diameter (nm) ([3]; 150 mM NaF): DNF
Liposome diameter (nm) ([3]; 150 mM NaI (24 h)): 38.69 nm
PDI ([3]; 150 mM NaI (24 h)): 0.250
Liposome diameter (nm) [3, 11]: 35.3 nm
PDI [3, 11]: 0.232
Liposome diameter (nm) [3, 12]: 63.92 nm
PDI [3, 12]: 0.385
liposome formation ([3]; 500 mM NaF): unable to form liposomes
Liposome diameter (nm) [3, 13]: 76.8 nm
PDI [3, 13]: 0.233

CCCCC/C=C\C/C=C\CCCCCCCC(=O)OC[C@H](COP(=O)(O)OCCN)OC(=O)CCCCCCC/C=C\C/C=C\CCCCC [DIinPE, reference compound]
siRNA encapsulation efficiency [5]: decreases encapsulation efficiency
